Read-outs that look alike come from different tables or passages of the source.
Assays:
[1] = tested on: experimental autoimmune encephalomyelitis (EAE); assay: MOG/CFA/Pertussis toxin-induced EAE, treatment initiated after severe CNS damage; type: in vivo, C57Bl/6 mice; settings: 0.3 mg/kg siponimod, 10 mg/kg laquinimod or both, daily for 30 days, from three days after first clinical symptoms; p<0.05
Method: Female C57Bl/6 mice were subcutaneously immunized with 200 μg recombinant MOG1-125 in CFA followed by one i.p. injection of 100 ng Pertussis toxin. Two days later an additional i.p. injection of 100 ng pertussis toxin was administered. Three days after the first clinical symptoms, the mice were randomized to either vehicle, 0.3 mg/kg siponimod, 10 mg/kg laquinimod or 0.3 mg/kg siponimod+10 mg/kg laquinimod and treated daily with said doses for 30 days. Treatment initiated after severe CNSneurological disease and tissue damage has occurred. More specifically after that a severe CNS damage, which can be characterized by hind limb paralysis, had already occurred.

[2] = tested on: experimental autoimmune encephalomyelitis (EAE); assay: MOG/CFA/Pertussis toxin-induced EAE, treatment initiated during ongoing CNS damage; type: in vivo, C57Bl/6 mice; settings: 0.3 mg/kg siponimod, 10 mg/kg laquinimod or both, daily for 21 days after infiltration of immune cells into CNS; p<0.05
Method: (§1) Female C57Bl/6 mice were subcutaneously immunized with 200 μg recombinant MOG1-125 in CFA followed by one i.p. injection of 100 ng Pertussis toxin. Two days later an additional i.p. injection of 100 ng pertussis toxin was administered. Following infiltration of immune cells into the CNS to initiate tissue damage, the mice were randomized to either vehicle, 0.3 mg/kg siponimod, 10 mg/kg laquinimod or 0.3 mg/kg siponimod+10 mg/kg laquinimod and treated daily with said doses for 21 days.

[3] = tested on: RRMS; settings: phase III, oral 0.6 mg once daily over 24 months; cited from earlier work
[4] = tested on: lymphocytes; assay: Lymphocyte reduction in MOG/CFA/Pertussis toxin-immunized C57/Bl6 mice; type: in vivo, C57Bl/6 mice; settings: 0.3 mg/kg siponimod, 10 mg/kg laquinimod or both, daily for 29 days, from three days after first clinical symptoms; p<0.05
Method: as §1, with “Three days after” for “Following infiltration of immune cells into”, “first clinical symptoms,” for “CNS to initiate tissue damage,”, “29” for “21”, “days. The MOG/CFA/Pertussis toxin-induced experimental autoimmune encephalomyelitis model in C57/Bl6 mice is described in Quancard et al (Chem Biol. 19(9):1142-51, 2012).” for “days.”

[5] = Level of siponimod in blood, brain and cerebrospinal fluid (CSF) in mice; type: in vivo; settings: female, mouse, C57Bl/6 mice, mean (SEM)
Method: Female C57Bl/6 mice were treated daily with 3 mg/kg siponimod, p.o. for 8 days. 8 hours after the last administration, animals were sacrificed and the levels of siponimod were measured in blood, brain and CSF.
Shown are mean values of 3-5 animals and standard error of the mean (in brackets).

[6] = tested on: RRMS; settings: phase II, oral doses of 0.25 mg, 0.5 mg, 1.25 mg, 2 mg and 10 mg; cited from earlier work

SMILES	disease burden (cumulative EAE score) (FIG. 2) [1]	daily disease severity / neurological paralysis / disease burden (FIG. 4) [2]	efficacy in treating RRMS [3]	effect on lymphocytes (FIG. 1) [4]	concentration at 8 h ([5]; CSF, oral, EAE, 3 mg/kg qd, day 8, 8 h, read-out: conc siponimod (nM) (SEM) CSF)	concentration at 8 h ([5]; CSF, po, 3 mg/kg qd p.o., day 8, 8 h after last administration, read-out: conc siponimod (nM) (SEM) CSF)	concentration at 8 h ([5]; blood, oral, EAE, 3 mg/kg qd, day 8, 8 h, read-out: conc siponimod (nM) (SEM) Blood)	concentration at 8 h ([5]; blood, po, 3 mg/kg qd p.o., day 8, 8 h after last administration, read-out: conc siponimod (nM) (SEM) Blood)	concentration at 8 h ([5]; brain, oral, EAE, 3 mg/kg qd, day 8, 8 h, read-out: conc siponimod (nM) (SEM) Brain)	concentration at 8 h ([5]; brain, po, 3 mg/kg qd p.o., day 8, 8 h after last administration, read-out: conc siponimod (nM) (SEM) Brain)	efficacy in treating RRMS [6]
CCN(C(=O)c1c(O)c2c(Cl)cccc2n(C)c1=O)c1ccccc1 [laquinimod, 5-chloro-N-ethyl-4-hydroxy-1-methyl-2-oxo-N-phenyl-1,2-dihydroquinoline-3-carboxamide]	did not significantly improve disease burden	did not significantly improve daily disease severity	showed efficacy	did not significantly reduce lymphocytes							
CCc1cc(/C(C)=N/OCc2ccc(C3CCCCC3)c(C(F)(F)F)c2)ccc1CN1CC(C(=O)O)C1 [siponimod, 1-{4-[1-((E)-4-cyclohexyl-3-trifluoromethyl-benzyloxyimino)-ethyl]-2-ethyl-benzyl}-azetidine-3-carboxylic acid]	reduced disease burden	transiently reduced neurological paralysis		reduced lymphocytes	17.7	7.2	1600	973	9190	5550	dose-dependent efficacy

— US10537566B2, “Combinations comprising siponimod and laquinimod for the treatment of multiple sclerosis” (Novartis AG, priority 2014, dated 2020)
